Legend:
[1] = test system: Acinetobacter baumannii; assay: Growth testing against ESKAPE pathogens: Acinetobacter baumannii; assay type: cell-based; set-up: key: Growth; X: No Growth
Method: (§1) Six analogs (FIG. 2) of the ciprofloxacin-N thiolated β-lactam were successfully synthesized. All these compounds were then tested against ESKAPE pathogens for bioactivity. The ESKAPE pathogens are a collection of six deadly superbugs, Enterococcus faecium, Staphylococcus aureus, Klebsiella pneumoniae, Acinetobacter baumannii, Pseudomonas aeruginosa, and Enterobacter species. […] G denotes growth and X denotes no growth in the tables.

[2] = test system: Klebesiella pneumonia; assay: Growth testing against ESKAPE pathogens: Klebesiella pneumonia; assay type: cell-based, Klebsiella pneumoniae; set-up: key: Growth; X: No Growth
Method: as §1

[3] = test system: Pseudomonas aeruginosa; assay: Growth testing against ESKAPE pathogens: Pseudomonas aeruginosa; assay type: cell-based; set-up: key: Growth; X: No Growth
Method: as §1

[4] = test system: Staphylococcus aureus; assay: Growth testing against ESKAPE pathogens: Staphylococcus aureus; assay type: cell-based; set-up: key to Activity against Staphylococcus aureus (growth observed): Growth; X: No Growth
Method: as §1

[5] = test system: Enterococcus faecium; assay: Growth testing against ESKAPE pathogens: Enterococcus faecium; assay type: cell-based; set-up: key: Growth; X: No Growth
Method: as §1

[6] = test system: MRSA; assay: Growth inhibition against MRSA; assay type: cell-based; conditions: at 1 μg/ml against MRSA
Method: as §1
Synthesis of dual drugs for the antibacterial purposes is a huge arena of research and for the first time this was done with the N-thiolated β-lactams. Though both N-acyl ciprofloxacins and N-thiolated β-lactams have been independently studied, the attempt to combine them via a cleavable covalent bond was never done. This study has elaborated on the synthesis of six such analogs.

CCCCCC(=O)N1CCN(c2cc3c(cc2F)c(=O)c(C(=O)OC2C(=O)N(c4ccc(OC)cc4)C2c2ccccc2Cl)cn3C2CC2)CC1 (stereo not shown) [Lactam 128]
G: Activity against Acinetobacter baumannii (growth observed) ([1]; 1 μg/ml) | Activity against Acinetobacter baumannii (growth observed) ([1]; 2 μg/ml) | Activity against Acinetobacter baumannii (growth observed) ([1]; 3 μg/ml) | Activity against Acinetobacter baumannii (growth observed) ([1]; 4 μg/ml) | Activity against Acinetobacter baumannii (growth observed) ([1]; 5 μg/ml) | Activity against Acinetobacter baumannii (growth observed) ([1]; 6 μg/ml) | Activity against Acinetobacter baumannii (growth observed) ([1]; 7 μg/ml) | Activity against Acinetobacter baumannii (growth observed) ([1]; 8 μg/ml) | Activity against Acinetobacter baumannii (growth observed) ([1]; 9 μg/ml) | Activity against Acinetobacter baumannii (growth observed) ([1]; 10 μg/ml) | Activity against Acinetobacter baumannii (growth observed) ([1]; 25 μg/ml) | Activity against Klebesiella pneumonia (growth observed) ([2]; 1 μg/ml) | Activity against Klebesiella pneumonia (growth observed) ([2]; 2 μg/ml) | Activity against Klebesiella pneumonia (growth observed) ([2]; 3 μg/ml) | Activity against Klebesiella pneumonia (growth observed) ([2]; 4 μg/ml) | Activity against Klebesiella pneumonia (growth observed) ([2]; 5 μg/ml) | Activity against Klebesiella pneumonia (growth observed) ([2]; 6 μg/ml) | Activity against Klebesiella pneumonia (growth observed) ([2]; 7 μg/ml) | Activity against Klebesiella pneumonia (growth observed) ([2]; 8 μg/ml) | Activity against Klebesiella pneumonia (growth observed) ([2]; 9 μg/ml) | Activity against Klebesiella pneumonia (growth observed) ([2]; 10 μg/ml) | Activity against Klebesiella pneumonia (growth observed) ([2]; 25 μg/ml) | Activity against Pseudomonas aeruginosa (growth observed) ([3]; 1 μg/ml) | Activity against Pseudomonas aeruginosa (growth observed) ([3]; 2 μg/ml) | Activity against Pseudomonas aeruginosa (growth observed) ([3]; 3 μg/ml) | Activity against Pseudomonas aeruginosa (growth observed) ([3]; 4 μg/ml) | Activity against Pseudomonas aeruginosa (growth observed) ([3]; 5 μg/ml) | Activity against Pseudomonas aeruginosa (growth observed) ([3]; 6 μg/ml) | Activity against Pseudomonas aeruginosa (growth observed) ([3]; 7 μg/ml) | Activity against Pseudomonas aeruginosa (growth observed) ([3]; 8 μg/ml) | Activity against Pseudomonas aeruginosa (growth observed) ([3]; 9 μg/ml) | Activity against Pseudomonas aeruginosa (growth observed) ([3]; 10 μg/ml) | Activity against Pseudomonas aeruginosa (growth observed) ([3]; 25 μg/ml) | Activity against Staphylococcus aureus (growth observed) ([4]; 1 μg/ml) | Activity against Staphylococcus aureus (growth observed) ([4]; 2 μg/ml) | Activity against Staphylococcus aureus (growth observed) ([4]; 3 μg/ml) | Activity against Staphylococcus aureus (growth observed) ([4]; 4 μg/ml) | Activity against Staphylococcus aureus (growth observed) ([4]; 5 μg/ml) | Activity against Staphylococcus aureus (growth observed) ([4]; 6 μg/ml) | Activity against Staphylococcus aureus (growth observed) ([4]; 7 μg/ml) | Activity against Staphylococcus aureus (growth observed) ([4]; 8 μg/ml) | Activity against Staphylococcus aureus (growth observed) ([4]; 9 μg/ml) | Activity against Staphylococcus aureus (growth observed) ([4]; 10 μg/ml) | Activity against Staphylococcus aureus (growth observed) ([4]; 25 μg/ml) | Activity against Enterococcus faecium (growth observed) ([5]; 1 μg/ml) | Activity against Enterococcus faecium (growth observed) ([5]; 2 μg/ml) | Activity against Enterococcus faecium (growth observed) ([5]; 3 μg/ml) | Activity against Enterococcus faecium (growth observed) ([5]; 4 μg/ml) | Activity against Enterococcus faecium (growth observed) ([5]; 5 μg/ml) | Activity against Enterococcus faecium (growth observed) ([5]; 6 μg/ml) | Activity against Enterococcus faecium (growth observed) ([5]; 7 μg/ml) | Activity against Enterococcus faecium (growth observed) ([5]; 8 μg/ml) | Activity against Enterococcus faecium (growth observed) ([5]; 9 μg/ml) | Activity against Enterococcus faecium (growth observed) ([5]; 10 μg/ml) | Activity against Enterococcus faecium (growth observed) ([5]; 25 μg/ml)

CCC(C)SN1C(=O)C(OC(=O)c2cn(C3CC3)c3cc(N4CCN(C(C)=O)CC4)c(F)cc3c2=O)C1c1ccccc1Cl (stereo not shown) [Lactam 125]
X: Activity against Staphylococcus aureus (growth observed) ([4]; 1 μg/ml) | Activity against Staphylococcus aureus (growth observed) ([4]; 2 μg/ml) | Activity against Staphylococcus aureus (growth observed) ([4]; 3 μg/ml) | Activity against Staphylococcus aureus (growth observed) ([4]; 4 μg/ml) | Activity against Staphylococcus aureus (growth observed) ([4]; 5 μg/ml) | Activity against Staphylococcus aureus (growth observed) ([4]; 6 μg/ml) | Activity against Staphylococcus aureus (growth observed) ([4]; 7 μg/ml) | Activity against Staphylococcus aureus (growth observed) ([4]; 8 μg/ml) | Activity against Staphylococcus aureus (growth observed) ([4]; 9 μg/ml) | Activity against Staphylococcus aureus (growth observed) ([4]; 10 μg/ml) | Activity against Staphylococcus aureus (growth observed) ([4]; 25 μg/ml)
complete growth inhibition: growth inhibition [6]
1 µg/mL: MIC ([4]; against S. aureus)
G: Activity against Acinetobacter baumannii (growth observed) ([1]; 1 μg/ml) | Activity against Acinetobacter baumannii (growth observed) ([1]; 2 μg/ml) | Activity against Acinetobacter baumannii (growth observed) ([1]; 3 μg/ml) | Activity against Acinetobacter baumannii (growth observed) ([1]; 4 μg/ml) | Activity against Acinetobacter baumannii (growth observed) ([1]; 5 μg/ml) | Activity against Acinetobacter baumannii (growth observed) ([1]; 6 μg/ml) | Activity against Acinetobacter baumannii (growth observed) ([1]; 7 μg/ml) | Activity against Acinetobacter baumannii (growth observed) ([1]; 8 μg/ml) | Activity against Acinetobacter baumannii (growth observed) ([1]; 9 μg/ml) | Activity against Acinetobacter baumannii (growth observed) ([1]; 10 μg/ml) | Activity against Acinetobacter baumannii (growth observed) ([1]; 25 μg/ml) | Activity against Klebesiella pneumonia (growth observed) ([2]; 1 μg/ml) | Activity against Klebesiella pneumonia (growth observed) ([2]; 2 μg/ml) | Activity against Klebesiella pneumonia (growth observed) ([2]; 3 μg/ml) | Activity against Klebesiella pneumonia (growth observed) ([2]; 4 μg/ml) | Activity against Klebesiella pneumonia (growth observed) ([2]; 5 μg/ml) | Activity against Klebesiella pneumonia (growth observed) ([2]; 6 μg/ml) | Activity against Klebesiella pneumonia (growth observed) ([2]; 7 μg/ml) | Activity against Klebesiella pneumonia (growth observed) ([2]; 8 μg/ml) | Activity against Klebesiella pneumonia (growth observed) ([2]; 9 μg/ml) | Activity against Klebesiella pneumonia (growth observed) ([2]; 10 μg/ml) | Activity against Klebesiella pneumonia (growth observed) ([2]; 25 μg/ml) | Activity against Pseudomonas aeruginosa (growth observed) ([3]; 1 μg/ml) | Activity against Pseudomonas aeruginosa (growth observed) ([3]; 2 μg/ml) | Activity against Pseudomonas aeruginosa (growth observed) ([3]; 3 μg/ml) | Activity against Pseudomonas aeruginosa (growth observed) ([3]; 4 μg/ml) | Activity against Pseudomonas aeruginosa (growth observed) ([3]; 5 μg/ml) | Activity against Pseudomonas aeruginosa (growth observed) ([3]; 6 μg/ml) | Activity against Pseudomonas aeruginosa (growth observed) ([3]; 7 μg/ml) | Activity against Pseudomonas aeruginosa (growth observed) ([3]; 8 μg/ml) | Activity against Pseudomonas aeruginosa (growth observed) ([3]; 9 μg/ml) | Activity against Pseudomonas aeruginosa (growth observed) ([3]; 10 μg/ml) | Activity against Pseudomonas aeruginosa (growth observed) ([3]; 25 μg/ml) | Activity against Enterococcus faecium (growth observed) ([5]; 1 μg/ml) | Activity against Enterococcus faecium (growth observed) ([5]; 2 μg/ml) | Activity against Enterococcus faecium (growth observed) ([5]; 3 μg/ml) | Activity against Enterococcus faecium (growth observed) ([5]; 4 μg/ml) | Activity against Enterococcus faecium (growth observed) ([5]; 5 μg/ml) | Activity against Enterococcus faecium (growth observed) ([5]; 6 μg/ml) | Activity against Enterococcus faecium (growth observed) ([5]; 7 μg/ml) | Activity against Enterococcus faecium (growth observed) ([5]; 8 μg/ml) | Activity against Enterococcus faecium (growth observed) ([5]; 9 μg/ml) | Activity against Enterococcus faecium (growth observed) ([5]; 10 μg/ml) | Activity against Enterococcus faecium (growth observed) ([5]; 25 μg/ml)

From patent US10010545B1, “Antibiotic compositions and methods of use” (University of South Florida, priority 2013, dated 2018)
